Results on 15 compounds are retold here after US20260325533A1, “CDK INHIBITOR COMPOUNDS” (ALEKSIA THERAPEUTICS, INC., priority 2023, published 2026).

Read-outs that look alike come from different tables or passages of the source. A value given as a limit tells only on which side of the number the result lay.

Common to all, as to format: biochemical
The target of one experiment is CDK1/CCNB1 (Homo sapiens, UniProt P06493). The experiment can be described thus: CDK1 homogeneous time-resolved fluorescence (HTRF) kinase assay. Conditions: CDK1/CCNB. The gist of the method: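 CDK1/CCNB1 0.5 nM + cpd, 20 min 23 °C; add 1 mM ATP, 50 nM ULight-4E-BP1 peptide, 60 min 23 °C; stop 10 mM EDTA; 2 nM Eu-Ab, 60 min; HTRF 665 nm. 11-pt half-log, top 10 μM typical; IC50.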
Chain of CDK1/CCNB1 (P06493 whole entry): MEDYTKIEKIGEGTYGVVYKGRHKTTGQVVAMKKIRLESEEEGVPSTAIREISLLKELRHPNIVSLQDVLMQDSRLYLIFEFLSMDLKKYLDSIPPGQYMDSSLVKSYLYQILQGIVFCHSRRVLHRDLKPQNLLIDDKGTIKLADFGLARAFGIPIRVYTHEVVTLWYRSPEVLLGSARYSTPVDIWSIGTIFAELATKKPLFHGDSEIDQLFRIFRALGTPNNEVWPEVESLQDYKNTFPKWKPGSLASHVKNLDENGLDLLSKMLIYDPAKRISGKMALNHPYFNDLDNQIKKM
Chain of CDK1/CCNB1 (P14635 whole entry partner): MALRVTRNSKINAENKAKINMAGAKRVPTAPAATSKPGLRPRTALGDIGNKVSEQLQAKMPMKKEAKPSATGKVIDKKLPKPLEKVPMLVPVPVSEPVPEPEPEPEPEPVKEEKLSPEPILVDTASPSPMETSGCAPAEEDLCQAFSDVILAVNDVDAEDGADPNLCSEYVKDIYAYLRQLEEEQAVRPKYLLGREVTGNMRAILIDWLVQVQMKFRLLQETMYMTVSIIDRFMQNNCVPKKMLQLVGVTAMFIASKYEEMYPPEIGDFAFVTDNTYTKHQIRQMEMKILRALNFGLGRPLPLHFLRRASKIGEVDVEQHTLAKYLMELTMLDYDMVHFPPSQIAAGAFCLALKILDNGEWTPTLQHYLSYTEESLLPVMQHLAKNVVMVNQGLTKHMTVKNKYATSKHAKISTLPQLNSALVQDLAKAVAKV

The target in another experiment is CDK6/CCND1 (Homo sapiens, UniProt Q00534). Description: CDK6 homogeneous time-resolved fluorescence (HTRF) kinase assay. Conditions: CDK6/CCND. The method in brief:
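Recombinant CDK6/CCND1 (1 nM final) was preincubated with compound for 20 min at 23 °C in HEPES buffer with MgCl2, EGTA, DTT and Tween 20. Kinase reaction then ran 60 min at 23 °C with 1 mM ATP and 50 nM ULight-4E-BP1 (Thr37/46) peptide, and was stopped with EDTA.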

Another experiment addresses CDK2/CCNE1 (Homo sapiens, UniProt P24941). The experiment can be described thus: CDK2 homogeneous time-resolved fluorescence (HTRF) kinase assay. The following applies: CDK2/CCNE. The gist of the method: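 IC50 derived from 11-point, half-log dilutions (usually top 10 μM) of compound, 1% DMSO. Kinase (3 nM CDK2/CCNE1) was preincubated with compound 20 min, then phosphorylated 50 nM ULight-4E-BP1 peptide at 1 mM ATP for 60 min, 23 °C. Europium-antibody TR-FRET read after EDTA stop.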
On the technique in general: Time-resolved FRET reads energy transfer from a long-lived donor to a nearby acceptor.

For another experiment, the target named is CDK4/CCND3 (Homo sapiens, UniProt P11802). Description: CDK4 homogeneous time-resolved fluorescence (HTRF) kinase assay. The following applies: CDK4/CCND. The gist of the method:
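HTRF kinase assay, CDK4/CCND3 1.5 nM, ATP 1 mM, ULight-4E-BP1 peptide 50 nM, 23 °C, 60 min reaction after 20 min preincubation. Eu-anti-pThr37/46 antibody detection. 11-pt half-log curves from 10 μM → IC50.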

Setting [1] is: x = IC50 25-250 nM, read-out: CDK1/CCNB IC50 (25-250 nM).
Setting [2] is: x = IC50 >250 nM, read-out: CDK6/CCND IC50 (>250 nM column).
Setting [3] is: x = IC50 <25 nM, read-out: CDK2/CCNE IC50 (<25 nM).
Where [4] appears, read: x = IC50 >250 nM, read-out: CDK4/CCND IC50 (>250 nM column).
Where [5] appears, read: x = IC50 25-250 nM, read-out: CDK6/CCND IC50 (25-250 nM).
The mark [6] stands for this setting: x = IC50 <25 nM, read-out: CDK4/CCND IC50 (<25 nM).
[7] abbreviates: x = IC50 25-250 nM, read-out: CDK4/CCND IC50 (25-250 nM).
The mark [8] stands for this setting: x = IC50 >250 nM, read-out: CDK1/CCNB IC50 (>250 nM column).
[9] abbreviates: x = IC50 25-250 nM, read-out: CDK2/CCNE IC50 (25-250 nM).
Where [10] appears, read: >250 nM, read-out: CDK1/CCNB IC50 >250 nM.
Where [11] appears, read: >250 nM, 1 mM ATP, read-out: CDK6/CCND IC50, >250 nM.
[12] abbreviates: 25-250 nM, read-out: CDK2/CCNE IC50, 25-250 nM.
The mark [13] stands for this setting: >250 nM, read-out: CDK4/CCND IC50, >250 nM.
Where [14] appears, read: <25 nM, read-out: CDK2/CCNE IC50, <25 nM.
The mark [15] stands for this setting: 25-250 nM, read-out: CDK4/CCND IC50, 25-250 nM.
[16] abbreviates: 25-250 nM, 1 mM ATP, read-out: CDK6/CCND IC50, 25-250 nM.

Chain of CDK4/CCND3 (P11802 whole entry): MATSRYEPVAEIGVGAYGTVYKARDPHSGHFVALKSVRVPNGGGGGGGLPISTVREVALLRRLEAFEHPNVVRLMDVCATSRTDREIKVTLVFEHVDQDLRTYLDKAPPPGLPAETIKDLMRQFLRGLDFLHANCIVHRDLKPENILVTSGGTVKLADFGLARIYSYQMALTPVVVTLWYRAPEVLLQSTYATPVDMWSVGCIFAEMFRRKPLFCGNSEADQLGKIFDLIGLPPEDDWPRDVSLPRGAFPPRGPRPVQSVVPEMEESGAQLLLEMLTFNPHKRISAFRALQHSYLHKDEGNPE
Chain of CDK4/CCND3 (P30281 whole entry partner): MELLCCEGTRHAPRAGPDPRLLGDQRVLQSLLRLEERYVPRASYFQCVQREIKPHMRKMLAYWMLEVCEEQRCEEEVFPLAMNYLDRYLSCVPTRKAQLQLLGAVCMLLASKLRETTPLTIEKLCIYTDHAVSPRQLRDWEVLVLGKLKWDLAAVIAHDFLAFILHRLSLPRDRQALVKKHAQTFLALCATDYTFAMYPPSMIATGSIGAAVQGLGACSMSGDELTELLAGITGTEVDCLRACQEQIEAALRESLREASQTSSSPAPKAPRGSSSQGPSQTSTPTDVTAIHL
Chain of CDK6/CCND1 (Q00534 whole entry): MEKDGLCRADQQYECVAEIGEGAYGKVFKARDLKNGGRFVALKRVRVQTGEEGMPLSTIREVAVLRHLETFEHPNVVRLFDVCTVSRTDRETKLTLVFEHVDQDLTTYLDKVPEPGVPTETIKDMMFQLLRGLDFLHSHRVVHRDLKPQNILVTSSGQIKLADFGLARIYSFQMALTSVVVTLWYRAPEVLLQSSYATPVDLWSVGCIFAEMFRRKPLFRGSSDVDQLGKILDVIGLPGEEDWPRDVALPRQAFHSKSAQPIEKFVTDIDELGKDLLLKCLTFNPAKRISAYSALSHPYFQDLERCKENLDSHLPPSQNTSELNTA
Chain of CDK6/CCND1 (P24385 whole entry partner): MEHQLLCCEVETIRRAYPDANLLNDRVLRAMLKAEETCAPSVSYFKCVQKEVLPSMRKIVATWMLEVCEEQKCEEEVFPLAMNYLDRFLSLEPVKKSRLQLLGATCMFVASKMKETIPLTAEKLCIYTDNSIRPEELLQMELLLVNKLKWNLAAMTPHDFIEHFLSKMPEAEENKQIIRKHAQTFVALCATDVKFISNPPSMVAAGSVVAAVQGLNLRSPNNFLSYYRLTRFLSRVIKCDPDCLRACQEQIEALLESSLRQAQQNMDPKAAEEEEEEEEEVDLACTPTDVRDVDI

Regarding `CCC1(CC)C(=O)Nc2cc(C#Cc3nccc4cnc(Nc5ccc(S(C)(=N)=O)cc5)cc34)ccc21` (single isomer, unassigned) [Ex 426, 3,3-diethyl-6-((7-((4-(S-methylsulfonimidoyl)phenyl)amino)-2,6-naphthyridin-1-yl)ethynyl)indolin-2-one], the IC50 is 0.025 to 0.25 µM at CDK1/CCNB1 (setting [1]), more than 0.25 µM at CDK6/CCND1 (setting [2]), less than 0.025 µM on CDK2/CCNE1 (setting [3]) and more than 0.25 µM at CDK4/CCND3 (setting [4]).

Take `CC1(C)C(=O)Nc2cc(C#Cc3nccc4cnc(Nc5ccc(S(=N)(=O)C6CC6)cc5)cc34)ccc21` (single isomer, unassigned) [Ex 437, 6-((7-((4-(cyclopropanesulfonimidoyl)phenyl)amino)-2,6-naphthyridin-1-yl)ethynyl)-3,3-dimethylindolin-2-one]: the IC50 is 0.025 to 0.25 µM at CDK1/CCNB1 (setting [1]), 0.025 to 0.25 µM on CDK6/CCND1 (setting [5]), less than 0.025 µM at CDK2/CCNE1 (setting [3]) and less than 0.025 µM on CDK4/CCND3 (setting [6]).

In the case of `CC1(C)C(=O)Nc2cc(C#Cc3nccc4cnc(Nc5ccc(S(C)(=N)=O)cc5)cc34)ccc21` (single isomer, unassigned) [Ex 451, 3,3-dimethyl-6-((7-((4-(S-methylsulfonimidoyl)phenyl)amino)-2,6-naphthyridin-1-yl)ethynyl)indolin-2-one], the IC50 on CDK1/CCNB1 (setting [1]) is 0.025 to 0.25 µM; at CDK6/CCND1 (setting [2]), more than 0.25 µM; at CDK2/CCNE1 (setting [3]), less than 0.025 µM; on CDK4/CCND3 (setting [7]), 0.025 to 0.25 µM.

With `CC(C)S(=N)(=O)c1ccc(Nc2cc3c(C#Cc4ccc5c(c4)NC(=O)C5(C)C)nccc3cn2)cc1` (single isomer, unassigned) [Ex 455, 3,3-dimethyl-6-((7-((4-(propan-2-ylsulfonimidoyl)phenyl)amino)-2,6-naphthyridin-1-yl)ethynyl)indolin-2-one], the IC50 on CDK1/CCNB1 (setting [1]) is 0.025 to 0.25 µM; on CDK6/CCND1 (setting [5]), 0.025 to 0.25 µM; on CDK2/CCNE1 (setting [3]) it was less than 0.025 µM; on CDK4/CCND3 (setting [7]) it was 0.025 to 0.25 µM; on CDK4/CCND3 (setting [6]) it was less than 0.025 µM.

With `CCS(=N)(=O)c1ccc(Nc2cc3c(C#Cc4ccc5c(c4)NC(=O)C5(C)C)nccc3cn2)cc1` (single isomer, unassigned) [Ex 462, 6-((7-((4-(ethylsulfonimidoyl)phenyl)amino)-2,6-naphthyridin-1-yl)ethynyl)-3,3-dimethylindolin-2-one], the IC50 was 0.025 to 0.25 µM at CDK1/CCNB1 (setting [1]), 0.025 to 0.25 µM at CDK6/CCND1 (setting [5]), less than 0.025 µM on CDK2/CCNE1 (setting [3]) and 0.025 to 0.25 µM at CDK4/CCND3 (setting [7]).

Take `CCS(=N)(=O)c1ccc(Nc2cc3c(C#Cc4cccnc4N)nccc3cn2)cc1` (single isomer, unassigned) [Ex 474, (4-((5-((2-aminopyridin-3-yl)ethynyl)-2,6-naphthyridin-3-yl)amino)phenyl)(ethyl)(imino)-l6-sulfanone]: the IC50 is more than 0.25 µM at CDK1/CCNB1 (setting [8]), more than 0.25 µM at CDK6/CCND1 (setting [2]), 0.025 to 0.25 µM at CDK2/CCNE1 (setting [9]) and more than 0.25 µM on CDK4/CCND3 (setting [4]).

Take `CS(=N)(=O)c1ccc(Nc2cc3c(C#Cc4cccnc4N)nccc3cn2)cc1` (single isomer, unassigned) [Ex 480, (4-((5-((2-aminopyridin-3-yl)ethynyl)-2,6-naphthyridin-3-yl)amino)phenyl)(imino)(methyl)-l6-sulfanone]: the IC50 at CDK1/CCNB1 (setting [8]) is more than 0.25 µM; on CDK6/CCND1 (setting [2]), more than 0.25 µM; on CDK2/CCNE1 (setting [9]) it was 0.025 to 0.25 µM; on CDK4/CCND3 (setting [4]), more than 0.25 µM.

Take `CC(O)CN1CCC(C#Cc2nccc3cnc(Nc4ccc(S(C)(=O)=O)cc4)cc23)CC1` (single isomer, unassigned) [Ex 607, 1-(4-((7-((4-(methylsulfonyl)phenyl)amino)-2,6-naphthyridin-1-yl)ethynyl)piperidin-1-yl)propan-2-ol]: the IC50 is more than 0.25 µM on CDK1/CCNB1 (setting [8]), 0.025 to 0.25 µM at CDK6/CCND1 (setting [5]), less than 0.025 µM on CDK2/CCNE1 (setting [3]) and more than 0.25 µM at CDK4/CCND3 (setting [4]).

With `Cc1c(-c2nccc3cnc(Nc4ccc(S(=N)(N)=O)cc4)cc23)ccc2c1cnn2CC(O)(C(F)(F)F)C(F)(F)F` (single isomer, unassigned) [Ex 679, 4-((5-(4-methyl-1-(3,3,3-trifluoro-2-hydroxy-2-(trifluoromethyl)propyl)-1H-indazol-5-yl)-2,6-naphthyridin-3-yl)amino)benzenesulfonimidamide], the IC50 at CDK1/CCNB1 (setting [1]) is 0.025 to 0.25 µM; at CDK6/CCND1 (setting [5]), 0.025 to 0.25 µM; at CDK2/CCNE1 (setting [3]), less than 0.025 µM; on CDK4/CCND3 (setting [7]), 0.025 to 0.25 µM.

On to `Cc1c(-c2nccc3cnc(Nc4ccc(S(=N)(=O)NC5CCC5)cc4)cc23)ccc2c1cnn2CC(O)(C(F)(F)F)C(F)(F)F` (single isomer, unassigned) [Ex 680, N-cyclobutyl-4-((5-(4-methyl-1-(3,3,3-trifluoro-2-hydroxy-2-(trifluoromethyl)propyl)-1H-indazol-5-yl)-2,6-naphthyridin-3-yl)amino)benzenesulfonimidamide], for which the IC50 was more than 0.25 µM at CDK1/CCNB1 (setting [10]), more than 0.25 µM on CDK6/CCND1 (setting [11]), 0.025 to 0.25 µM at CDK2/CCNE1 (setting [12]) and more than 0.25 µM at CDK4/CCND3 (setting [13]).

For `Cc1c(-c2nccc3cnc(Nc4ccc(S(=N)(=O)NC5CC5)cc4)cc23)ccc2c1cnn2CC(O)(C(F)(F)F)C(F)(F)F` (single isomer, unassigned) [Ex 681, N-cyclopropyl-4-((5-(4-methyl-1-(3,3,3-trifluoro-2-hydroxy-2-(trifluoromethyl)propyl)-1H-indazol-5-yl)-2,6-naphthyridin-3-yl)amino)benzenesulfonimidamide], the IC50 was more than 0.25 µM at CDK1/CCNB1 (setting [10]), more than 0.25 µM at CDK6/CCND1 (setting [11]), less than 0.025 µM on CDK2/CCNE1 (setting [14]) and 0.025 to 0.25 µM at CDK4/CCND3 (setting [15]).

With `CNS(=N)(=O)c1ccc(Nc2cc3c(-c4ccc5c(cnn5CC(O)(C(F)(F)F)C(F)(F)F)c4C)nccc3cn2)cc1` (single isomer, unassigned) [Ex 683, N-methyl-4-((5-(4-methyl-1-(3,3,3-trifluoro-2-hydroxy-2-(trifluoromethyl)propyl)-1H-indazol-5-yl)-2,6-naphthyridin-3-yl)amino)benzenesulfonimidamide], the IC50 at CDK1/CCNB1 (setting [10]) is more than 0.25 µM; on CDK6/CCND1 (setting [16]), 0.025 to 0.25 µM; on CDK2/CCNE1 (setting [14]), less than 0.025 µM; on CDK4/CCND3 (setting [15]), 0.025 to 0.25 µM.

For the compound `Cc1c(-c2nccc3cnc(Nc4ccc(S(=N)(=O)Nc5ccccc5)cc4)cc23)ccc2c1cnn2CC(O)(C(F)(F)F)C(F)(F)F` (single isomer, unassigned) [Ex 685, 4-((5-(4-methyl-1-(3,3,3-trifluoro-2-hydroxy-2-(trifluoromethyl)propyl)-1H-indazol-5-yl)-2,6-naphthyridin-3-yl)amino)-N-phenylbenzenesulfonimidamide], the IC50 was more than 0.25 µM on CDK1/CCNB1 (setting [10]), more than 0.25 µM on CDK6/CCND1 (setting [11]), 0.025 to 0.25 µM on CDK2/CCNE1 (setting [12]) and more than 0.25 µM on CDK4/CCND3 (setting [13]).

Take `CC1(C)C(=O)Nc2cc(C#Cc3nccc4cnc(Nc5ccc(S(=N)(=O)NC6CCC6)cc5)cc34)ccc21` (single isomer, unassigned) [Ex 688, N-cyclobutyl-4-((5-((3,3-dimethyl-2-oxoindolin-6-yl)ethynyl)-2,6-naphthyridin-3-yl)amino)benzenesulfonimidamide]: the IC50 was more than 0.25 µM on CDK1/CCNB1 (setting [10]), 0.025 to 0.25 µM at CDK6/CCND1 (setting [16]), less than 0.025 µM at CDK2/CCNE1 (setting [14]) and 0.025 to 0.25 µM at CDK4/CCND3 (setting [15]).

Consider `CCNS(=N)(=O)c1ccc(Nc2cc3c(-c4ccc5c(cnn5CC(O)(C(F)(F)F)C(F)(F)F)c4C)nccc3cn2)cc1` (single isomer, unassigned) [Ex 692, N-ethyl-4-((5-(4-methyl-1-(3,3,3-trifluoro-2-hydroxy-2-(trifluoromethyl)propyl)-1H-indazol-5-yl)-2,6-naphthyridin-3-yl)amino)benzenesulfonimidamide], for which the IC50 is more than 0.25 µM at CDK1/CCNB1 (setting [10]), 0.025 to 0.25 µM at CDK6/CCND1 (setting [16]), less than 0.025 µM on CDK2/CCNE1 (setting [14]) and 0.025 to 0.25 µM on CDK4/CCND3 (setting [15]).
